Legend:
Format in all cases: functional, Hippocampal neurone
Details in all cases: time 18.5 hrs
[1] = Neuroprotective activity against NMDA-induced neurotoxicity in Sprague-Dawley rat hippocampal neurons assessed as increase in cell viability at 0.1 uM incubated for 18 hrs followed by NMDA addition and measured after 0.5 hrs by MTT assay
[2] = Neuroprotective activity against NMDA-induced neurotoxicity in Sprague-Dawley rat hippocampal neurons assessed as increase in cell viability at 10 uM incubated for 18 hrs followed by NMDA addition and measured after 0.5 hrs by MTT assay
[3] = Neuroprotective activity against NMDA-induced neurotoxicity in Sprague-Dawley rat hippocampal neurons assessed as increase in cell viability at 1 uM incubated for 18 hrs followed by NMDA addition and measured after 0.5 hrs by MTT assay

Structure (SMILES)	Activity [1]	Activity [2]	Activity [3]	Activity ([1]; 0.1 µM)	Activity ([2]; 10 µM)	Activity ([3]; 1 µM)
N#Cc1ccc(CN2CCN(CCCC3OC(=O)c4ccccc43)CC2)cc1 (stereo not drawn)	49.49%	60.33%	54.83%	–	–	–
O=C1OC(CCCN2CCN(Cc3cccnc3)CC2)c2ccccc21 (stereo not drawn)	51.84%	63.33%	55.95%	–	–	–
O=C1OC(CCCN2CCN(Cc3cccc([N+](=O)[O-])c3)CC2)c2ccccc21 (stereo not drawn)	53.23%	73.28%	69.03%	–	–	–
O=C1OC(CCCN2CCC(Cc3ccccc3)CC2)c2ccccc21 (stereo not drawn)	49.13%	79.12%	78.13%	–	–	–
CN(C)CCC1OC(=O)c2ccccc21 (stereo not drawn)	56.09%	73.56%	71.66%	–	–	–
O=C1OC(CCCN2CCC(CO)CC2)c2ccccc21 (stereo not drawn)	60.19%	78.14%	74.86%	–	–	–
CN(C)CCCC1OC(=O)c2ccccc21 (stereo not drawn)	48.37%	78.18%	77.37%	–	–	–
O=C1OC(CCCN2CCN(Cc3ccc(F)c(F)c3)CC2)c2ccccc21 (stereo not drawn)	57.3%	75.45%	65.4%	–	–	–
O=C1OC(CCCN2CCN(Cc3ccc4ccccc4n3)CC2)c2ccccc21 (stereo not drawn)	49.69%	62.96%	55.95%	–	–	–
CS(=O)(=O)c1ccc(CN2CCN(CCCC3OC(=O)c4ccccc43)CC2)cc1 (stereo not drawn)	50.17%	61.02%	55.51%	–	–	–
O=C1OC(CCCN2CCN(Cc3ccc(Br)cc3)CC2)c2ccccc21 (stereo not drawn)	46.12%	46.13%	45.56%	–	–	–
O=C1OC(CCCN2CCN(Cc3ccccn3)CC2)c2ccccc21 (stereo not drawn)	57.46%	74.65%	67.89%	–	–	–
O=C1OC(CCCN2CCCC2)c2ccccc21 (stereo not drawn)	56.53%	73.16%	65.3%	–	–	–
O=C1OC(CCCN2CCC(O)CC2)c2ccccc21 (stereo not drawn)	58.83%	77.13%	67.72%	–	–	–
O=C1OC(CCN2CCc3sccc3C2)c2ccccc21 (stereo not drawn)	45.88%	66.05%	58.81%	–	–	–
Cc1ccc(CN2CCN(CCCC3OC(=O)c4ccccc43)CC2)cc1 (stereo not drawn)	51.66%	68.38%	64.44%	–	–	–
O=C1OC(CCCN2CCOCC2)c2ccccc21 (stereo not drawn)	57.15%	76.22%	65.19%	–	–	–
O=C1OC(CCCN2CCN(Cc3ccncc3)CC2)c2ccccc21 (stereo not drawn)	57.55%	75.54%	66.35%	–	–	–
Cc1cccc(CN2CCN(CCCC3OC(=O)c4ccccc43)CC2)c1 (stereo not drawn)	53.08%	67.43%	61.15%	–	–	–
O=C1OC(CCCN2CCN(Cc3cccc(Cl)c3)CC2)c2ccccc21 (stereo not drawn)	49.69%	62.96%	55.95%	–	–	–
O=C1OC(CCCN2CCN(Cc3ccc(C(F)(F)F)cc3)CC2)c2ccccc21 (single isomer, unassigned; enantiomer A)	–	–	–	62.81%	81.02%	71.91%
O=C1OC(CCCN2CCCCC2)c2ccccc21 (stereo not drawn)	63.96%	77.85%	70.2%	–	–	–
COc1ccc(CN2CCN(CCCC3OC(=O)c4ccccc43)CC2)cc1OC (stereo not drawn)	46.58%	48.44%	47.16%	–	–	–
O=C1OC(CCCN2CCN(Cc3ccc(F)cc3)CC2)c2ccccc21 (stereo not drawn)	52.58%	72.2%	64.11%	–	–	–
O=C1OC(CCN2CCCC2)c2ccccc21 (stereo not drawn)	57.21%	70.66%	66.34%	–	–	–
O=C1OC(CCCN2CCN(Cc3ccc(C(F)(F)F)cc3)CC2)c2ccccc21 (single isomer, unassigned; enantiomer B)	–	–	–	65.86%	81.82%	81.02%
